Assay results reported in patent US20250346574A1, “PYRIDINYL SUBSTITUTED OXOISOINDOLINE COMPOUNDS FOR THE TREATMENT OF CANCER” (Bristol-Myers Squibb Company, priority 2021, published 2025).

target: Helios (Homo sapiens, UniProt Q96SW2+Q9UKS7); experiment: Helios Human T Regulatory Cells Degradation Assay; assay type: cell-based; set-up: fluorescently labelled antibodies against Helios in 1× Permeabilization buffer; endogenous in cells; host or cells: cryopreserved human T regulatory cells; details: cryopreserved human T regulatory cells, incubated 20 hours, Helios-APC antibody staining, flow cytometry; read-out: hTreg Helios DC50
Sequence (Q9UKS7 whole entry): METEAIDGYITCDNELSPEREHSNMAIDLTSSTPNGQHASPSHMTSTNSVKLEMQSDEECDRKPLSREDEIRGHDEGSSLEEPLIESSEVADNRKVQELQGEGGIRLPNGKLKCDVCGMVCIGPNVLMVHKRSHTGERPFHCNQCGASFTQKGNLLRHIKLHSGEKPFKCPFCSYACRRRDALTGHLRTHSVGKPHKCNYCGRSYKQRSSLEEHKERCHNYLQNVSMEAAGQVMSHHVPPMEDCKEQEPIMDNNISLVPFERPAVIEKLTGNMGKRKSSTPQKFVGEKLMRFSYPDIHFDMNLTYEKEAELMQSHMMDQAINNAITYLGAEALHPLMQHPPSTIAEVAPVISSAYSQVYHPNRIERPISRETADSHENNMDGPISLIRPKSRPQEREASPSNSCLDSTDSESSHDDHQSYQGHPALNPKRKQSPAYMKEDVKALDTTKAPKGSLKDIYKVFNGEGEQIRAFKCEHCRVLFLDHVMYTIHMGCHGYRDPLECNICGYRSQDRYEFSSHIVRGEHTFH
Sequence (Q96SW2 whole entry): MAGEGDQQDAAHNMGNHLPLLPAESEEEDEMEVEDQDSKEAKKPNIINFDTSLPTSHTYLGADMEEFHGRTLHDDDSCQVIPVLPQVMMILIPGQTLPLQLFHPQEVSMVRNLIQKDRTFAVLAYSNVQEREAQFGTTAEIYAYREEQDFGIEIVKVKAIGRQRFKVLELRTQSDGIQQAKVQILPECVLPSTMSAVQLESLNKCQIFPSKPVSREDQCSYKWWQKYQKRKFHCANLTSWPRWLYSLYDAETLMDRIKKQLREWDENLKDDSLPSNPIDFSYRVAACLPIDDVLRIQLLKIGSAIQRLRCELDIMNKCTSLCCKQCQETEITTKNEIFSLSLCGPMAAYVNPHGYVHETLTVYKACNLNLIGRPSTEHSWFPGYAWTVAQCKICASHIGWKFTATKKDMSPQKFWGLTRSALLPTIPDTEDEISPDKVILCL
Sequence (Q16531 whole entry partner): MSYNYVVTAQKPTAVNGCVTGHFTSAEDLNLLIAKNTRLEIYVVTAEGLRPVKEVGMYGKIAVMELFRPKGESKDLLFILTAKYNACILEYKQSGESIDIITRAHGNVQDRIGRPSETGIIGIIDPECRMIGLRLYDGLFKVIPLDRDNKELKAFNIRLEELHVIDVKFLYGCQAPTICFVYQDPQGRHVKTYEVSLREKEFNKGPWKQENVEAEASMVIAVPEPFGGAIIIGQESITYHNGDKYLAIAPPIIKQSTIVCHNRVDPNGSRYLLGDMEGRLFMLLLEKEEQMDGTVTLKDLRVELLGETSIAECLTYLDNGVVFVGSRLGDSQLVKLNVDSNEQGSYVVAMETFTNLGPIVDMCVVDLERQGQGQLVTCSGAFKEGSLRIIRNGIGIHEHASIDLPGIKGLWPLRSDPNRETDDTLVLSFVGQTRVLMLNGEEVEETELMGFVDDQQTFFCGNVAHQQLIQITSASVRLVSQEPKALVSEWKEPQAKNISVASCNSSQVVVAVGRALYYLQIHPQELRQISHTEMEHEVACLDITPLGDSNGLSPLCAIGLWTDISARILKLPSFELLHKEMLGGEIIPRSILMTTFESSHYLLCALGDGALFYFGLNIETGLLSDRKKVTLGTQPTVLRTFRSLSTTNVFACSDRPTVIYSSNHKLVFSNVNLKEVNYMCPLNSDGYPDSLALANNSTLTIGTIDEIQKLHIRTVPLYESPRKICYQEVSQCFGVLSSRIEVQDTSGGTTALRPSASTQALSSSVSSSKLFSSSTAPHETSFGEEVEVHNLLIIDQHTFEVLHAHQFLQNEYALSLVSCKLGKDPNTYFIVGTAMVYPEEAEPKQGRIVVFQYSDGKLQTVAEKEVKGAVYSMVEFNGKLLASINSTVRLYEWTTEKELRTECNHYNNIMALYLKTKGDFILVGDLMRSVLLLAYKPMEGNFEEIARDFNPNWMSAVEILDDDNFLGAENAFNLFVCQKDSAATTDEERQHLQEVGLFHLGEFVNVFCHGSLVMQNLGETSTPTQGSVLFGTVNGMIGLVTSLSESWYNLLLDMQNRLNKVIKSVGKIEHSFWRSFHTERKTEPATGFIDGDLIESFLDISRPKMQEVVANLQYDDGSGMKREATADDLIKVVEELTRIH
Description: Cryopreserved human T regulatory cells were thawed in RPMI+10% FBS+20 ng/mL IL-2. After being spun at 1200 rpm for 5 mins, the cells were resuspended in RPMI+10% FBS+20 ng/mL and rested at 37° C. with 5% CO2 for 3 hours. […] Cell cultures were incubated for 20 hours at 37° C. and 5% CO2. In order to facilitate analysis, cell cultures were spun down at 1200 rpm for 5 minutes and the supernatant was discarded using an EL406 plate washer. After washing three times with 70 μL PBS, cell pellets were resuspended in 50 μL of near IR viability staining solution (Life Technologies, Cat #L34975) and incubated for 30 minutes on ice protected from light. Cells were washed three times with 70 μL PBS+0.5% BSA using an EL406 plate washer. […] Subsequently, 30 μL of 1× Permeabilization buffer was added prior to centrifuging the cells and discarding the supernatant. Stained cells were resuspended in 30 μL of flow cytometry staining buffer (PBS+0.5% BSA) and analyzed using an Intellicyt Ique Plus flow cytometer.

First: C[C@@H]1c2c(ccc(-c3cc(CN4CCC(C)(O)C4)ccn3)c2F)C(=O)N1[C@H]1CCC(=O)NC1=O (stereo partly drawn) [Example 140, (3S)-3-((3R)-4-fluoro-5-(4-((3-hydroxy-3-methylpyrrolidin-1-yl)methyl)pyridin-2-yl)-3-methyl-1-oxoisoindolin-2-yl)piperidine-2,6-dione]
Second: C[C@@H]1c2c(ccc(-c3cc(CN4CC[C@H](F)C4)ccn3)c2F)C(=O)N1[C@H]1CCC(=O)NC1=O [Example 142]
The DC50 of the first is 8.9-fold lower: 79.1 nM for the first, 706 nM for the second.

Going from `C[C@@H]1c2c(ccc(-c3cc(CN4CC[C@@H](Oc5ccccc5)C4)ccn3)c2F)C(=O)N1[C@H]1CCC(=O)NC1=O` [Example 141, (S)-3-((R)-4-fluoro-3-methyl-1-oxo-5-(4-(((R)-3-phenoxypyrrolidin-1-yl)methyl)pyridin-2-yl)isoindolin-2-yl)piperidine-2,6-dione] to `CN(C(=O)c1ccccc1)C1CN(Cc2ccnc(-c3ccc4c(c3)CN([C@H]3CCC(=O)NC3=O)C4=O)c2)C1` [Example 160, (S)—N-(1-((2-(2-(2,6-dioxopiperidin-3-yl)-1-oxoisoindolin-5-yl)pyridin-4-yl)methyl)azetidin-3-yl)-N-methylbenzamide], the DC50 falls from at least 10000 nM to 61.9 nM.

First: O=C1CC[C@H](N2Cc3cc(-c4cc(CN5CC6(CC(O)C6)C5)ccn4)ccc3C2=O)C(=O)N1 [Example 145, (S)-3-(5-(4-((6-hydroxy-2-azaspiro[3.3]heptan-2-yl)methyl)pyridin-2-yl)-1-oxoisoindolin-2-yl)piperidine-2,6-dione]
Second: O=C1CCC(N2Cc3cc(-c4cc(CN5CC6(CCCCC6)C5)ccn4)ccc3C2=O)C(=O)N1 (stereo not shown) [Example 157, 3-(5-(4-((2-azaspiro[3.5]nonan-2-yl)methyl)pyridin-2-yl)-1-oxoisoindolin-2-yl) piperidine-2,6-dione]
The DC50 of the first is 3.6-fold lower: 0.7 nM for the first, 2.5 nM for the second.

First: O=C1CC[C@H](N2Cc3cc(-c4cc(CN5CC6CC(O)CC6C5)ccn4)ccc3C2=O)C(=O)N1 (stereo partly drawn) [Example 146, (3S)-3-(5-(4-((5-hydroxyhexahydrocyclopenta[c]pyrrol-2(1H)-yl)methyl)pyridin-2-yl)-1-oxoisoindolin-2-yl)piperidine-2,6-dione]
Second: O=C1CC[C@H](N2Cc3cc(-c4cc(CN5C[C@H]6COC[C@H]6C5)ccn4)ccc3C2=O)C(=O)N1 [Example 152, (S)-3-(1-oxo-5-(4-(((3aR,6aS)-tetrahydro-1H-furo[3,4-c]pyrrol-5(3H)-yl)methyl)pyridin-2-yl)isoindolin-2-yl)piperidine-2,6-dione]
The DC50 of the first is 6.3-fold lower: 3 nM for the first, 18.8 nM for the second.

Going from `CC1=CC2CN(Cc3ccnc(-c4ccc5c(c4)CN([C@H]4CCC(=O)NC4=O)C5=O)c3)CC2C1` (stereo partly drawn) [Example 148, (3S)-3-(5-(4-((5-methyl-3,3a,4,6a-tetrahydrocyclopenta[c]pyrrol-2(1H)-yl)methyl)pyridin-2-yl)-1-oxoisoindolin-2-yl)piperidine-2,6-dione] to `CN(C1CN(Cc2ccnc(-c3ccc4c(c3)CN([C@H]3CCC(=O)NC3=O)C4=O)c2)C1)S(C)(=O)=O` [Example 161, (S)—N-(1-((2-(2-(2,6-dioxopiperidin-3-yl)-1-oxoisoindolin-5-yl)pyridin-4-yl)methyl)azetidin-3-yl)-N-methylmethanesulfonamide], the DC50 rises from 3.7 nM to 223 nM (60-fold).

Going from `O=C1CC[C@H](N2Cc3cc(-c4nccc(CN5C[C@H]6CCC(O)C[C@H]6C5)c4F)ccc3C2=O)C(=O)N1` (stereo partly drawn) [Example 149, (3S)-3-(5-(3-fluoro-4-(((3aR,7aS)-5-hydroxyoctahydro-2H-isoindol-2-yl)methyl)pyridin-2-yl)-1-oxoisoindolin-2-yl)piperidine-2,6-dione] to `O=C1CC[C@H](N2Cc3cc(-c4nccc(CN5CC6CCCC6C5)c4F)ccc3C2=O)C(=O)N1` (stereo partly drawn) [Example 155, (3S)-3-(5-(3-fluoro-4-((hexahydrocyclopenta[c]pyrrol-2(1H)-yl)methyl)pyridin-2-yl)-1-oxoisoindolin-2-yl)piperidine-2,6-dione], the DC50 rises from 6.7 nM to 10.9 nM (1.6-fold).

Compared with `O=C1CC[C@H](N2Cc3cc(-c4nccc(CN5CCC6(CCNC6=O)CC5)c4F)ccc3C2=O)C(=O)N1` [Example 150, (S)-3-(5-(3-fluoro-4-((1-oxo-2,8-diazaspiro[4.5]decan-8-yl)methyl)pyridin-2-yl)-1-oxoisoindolin-2-yl)piperidine-2,6-dione], `O=C1CC[C@H](N2Cc3cc(-c4nccc(CN5CC6(CC(O)C6)C5)c4F)ccc3C2=O)C(=O)N1` [Example 153, (S)-3-(5-(3-fluoro-4-((6-hydroxy-2-azaspiro[3.3]heptan-2-yl)methyl)pyridin-2-yl)-1-oxoisoindolin-2-yl)piperidine-2,6-dione] is lower in DC50: at least 10000 nM for the first, 15.3 nM for the second.

First: O=C1CC[C@H](N2Cc3cc(-c4nccc(CN5C[C@H]6COC[C@H]6C5)c4F)ccc3C2=O)C(=O)N1 [Example 151, (S)-3-(5-(3-fluoro-4-(((3aR,6aS)-tetrahydro-1H-furo[3,4-c]pyrrol-5(3H)-yl)methyl)pyridin-2-yl)-1-oxoisoindolin-2-yl)piperidine-2,6-dione]
Second: CC(C)(C)OC(=O)N1C[C@@H]2CN(Cc3ccnc(-c4ccc5c(c4)CN([C@H]4CCC(=O)NC4=O)C5=O)c3F)C[C@H]2C1 [Example 154, tert-butyl (3aS,6aS)-5-((2-(2-((S)-2,6-dioxopiperidin-3-yl)-1-oxoisoindolin-5-yl)-3-fluoropyridin-4-yl)methyl)hexahydropyrrolo[3,4-c]pyrrole-2(1H)-carboxylate]
The DC50 of the first is 1.7-fold lower: 167 nM for the first, 284 nM for the second.

First: CC(C)(C)OC(=O)N1C[C@H]2CN(Cc3ccnc(-c4ccc5c(c4)CN([C@H]4CCC(=O)NC4=O)C5=O)c3F)C[C@H]2C1 [Example 156, tert-butyl (3aR,6aS)-5-((2-(2-((S)-2,6-dioxopiperidin-3-yl)-1-oxoisoindolin-5-yl)-3-fluoropyridin-4-yl)methyl)hexahydropyrrolo[3,4-c]pyrrole-2(1H)-carboxylate]
Second: CN(CC1CN(Cc2ccnc(-c3ccc4c(c3)CN([C@H]3CCC(=O)NC3=O)C4=O)c2)C1)C(=O)c1ccccc1 [Example 164, (S)—N-((1-((2-(2-(2,6-dioxopiperidin-3-yl)-1-oxoisoindolin-5-yl)pyridin-4-yl)methyl)azetidin-3-yl)methyl)-N-methylbenzamide]
The DC50 of the first is higher: at least 10000 nM for the first, 15.9 nM for the second.

First: O=C1CC[C@H](N2Cc3cc(-c4cc(CN5CC6(CCOCC6)C5)ccn4)ccc3C2=O)C(=O)N1 [Example 158, (S)-3-(5-(4-((7-oxa-2-azaspiro[3.5]nonan-2-yl)methyl)pyridin-2-yl)-1-oxoisoindolin-2-yl)piperidine-2,6-dione]
Second: O=C1CCC(N2Cc3cc(-c4cc(Cn5cccn5)ccn4)ccc3C2=O)C(=O)N1 (stereo not shown) [Example 165, 3-(5-(4-((1H-pyrazol-1-yl)methyl)pyridin-2-yl)-1-oxoisoindolin-2-yl)piperidine-2,6-dione]
The DC50 of the first is 56-fold lower: 3.2 nM for the first, 178 nM for the second.

Compared with `O=C1CCC(N2Cc3cc(-c4cc(CN5CC(CNC(=O)c6ccccc6)C5)ccn4)ccc3C2=O)C(=O)N1` (stereo not shown) [Example 159, N-((1-((2-(2-(2,6-dioxopiperidin-3-yl)-1-oxoisoindolin-5-yl)pyridin-4-yl)methyl)azetidin-3-yl)methyl)benzamide], `CN(C1CN(Cc2ccnc(-c3ccc4c(c3)CN([C@H]3CCC(=O)NC3=O)C4=O)c2)C1)S(=O)(=O)c1ccccc1` [Example 162, (S)—N-(1-((2-(2-(2,6-dioxopiperidin-3-yl)-1-oxoisoindolin-5-yl)pyridin-4-yl)methyl)azetidin-3-yl)-N-methylbenzenesulfonamide] is 2-fold higher in DC50: 14.6 nM for the first, 28.7 nM for the second.
